Patent publication US12115218B2 (priority 2018, dated 2024)
Where a name gives a salt, the structure may show the parent alone.

Test system: Inactivated porcine circovirus type 2 vaccine (SH strain) antigen
Design: species or system mice
Conditions: mouse, in vivo

| Compound | Antibody titers in mice |
| --- | --- |
| polyinosinic acid-polycytidylic acid | no adjuvant synergistic effect was produced |
| c1ccc([C@H]2CN3CCSC3=N2)cc1 [levamisole aqueous solution, levamisole hydrochloride] | no adjuvant synergistic effect was produced |
